Measurements reported in patent US8674097B2, “Quinoxalinedione derivatives useful as activators of AMPK-activated protein kinase” (Merck Patent GmbH, priority 2008, dated 2014).

Experiments:
[1] = biological target: T1, AMPK protein (recombinant α1β1γ2) (Homo sapiens, UniProt Q13131+Q9UGJ0+Q9Y478); assay: AMPK enzymatic activity (Delfia, AMARA peptide); assay type: biochemical; conditions: compound 30 μM vs AMP 30 μM; 125 μM ATP; direct activator if ratio is 90% or higher
T1 construct: made in house; host or cells: E. coli
Experimental: The following biological test allows the determination of the efficacy of such compounds of formula (I) onto AMPK protein (recombinant α1β1γ2).
Human recombinant AMPK enzyme was expressed in E. Coli and was reactivated in vitro by LKB1 prior to enzyme activity determination. AMPK enzyme activities were assayed by using A Delfia technology. AMPK enzyme activities were carried out in microtiter plates (50 mM Hepes buffer, pH 7.4 with 125 μM ATP respectively) in the presence of a synthetic peptide substrate (AMARAASAAALARRR, the “AMARA” peptide) and activators in serial dilutions. Reactions were initiated by the addition of AMPK (50-100 ng). Following mixing, the plates were incubated for 30 min at room temperature. Enzyme activity was assayed by using an anti-phosphoserine antibody to measure the quantity of phosphate incorporated into the AMARAA.
Ratio between the % of control (basal activity) of compound of formula (I) at 30 μM and the % of control (basal activity) of AMP (natural […]) at 30 μM.
Compounds of formula (I) are considered as direct activator of AMPK if the ratio is 90% or higher.

[2] = tested on: ob/ob and db/db mice; conditions: 8 day AICAR administration; cited from earlier work

T1 sequence (Q13131 whole entry): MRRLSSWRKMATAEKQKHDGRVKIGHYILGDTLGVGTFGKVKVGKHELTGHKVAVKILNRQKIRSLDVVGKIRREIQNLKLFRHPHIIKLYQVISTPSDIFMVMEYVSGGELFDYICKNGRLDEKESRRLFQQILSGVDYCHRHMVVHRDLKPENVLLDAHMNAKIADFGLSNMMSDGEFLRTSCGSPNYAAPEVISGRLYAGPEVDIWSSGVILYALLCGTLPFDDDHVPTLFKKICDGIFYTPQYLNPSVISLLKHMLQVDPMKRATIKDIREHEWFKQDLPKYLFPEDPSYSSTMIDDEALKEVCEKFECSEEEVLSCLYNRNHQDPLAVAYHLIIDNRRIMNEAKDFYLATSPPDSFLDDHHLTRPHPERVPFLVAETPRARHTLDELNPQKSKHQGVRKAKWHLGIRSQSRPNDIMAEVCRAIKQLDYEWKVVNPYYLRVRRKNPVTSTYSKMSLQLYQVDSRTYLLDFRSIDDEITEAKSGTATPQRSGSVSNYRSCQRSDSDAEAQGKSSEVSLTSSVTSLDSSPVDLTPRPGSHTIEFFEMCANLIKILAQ
T1 sequence (Q9Y478 whole entry): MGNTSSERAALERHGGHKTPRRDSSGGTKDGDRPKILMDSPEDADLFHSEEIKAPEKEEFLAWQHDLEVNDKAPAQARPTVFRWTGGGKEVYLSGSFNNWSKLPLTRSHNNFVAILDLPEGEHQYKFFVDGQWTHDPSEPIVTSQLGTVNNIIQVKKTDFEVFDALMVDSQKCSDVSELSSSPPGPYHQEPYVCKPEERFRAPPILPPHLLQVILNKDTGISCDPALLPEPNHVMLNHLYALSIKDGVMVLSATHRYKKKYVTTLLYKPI
T1 sequence (Q9UGJ0 whole entry): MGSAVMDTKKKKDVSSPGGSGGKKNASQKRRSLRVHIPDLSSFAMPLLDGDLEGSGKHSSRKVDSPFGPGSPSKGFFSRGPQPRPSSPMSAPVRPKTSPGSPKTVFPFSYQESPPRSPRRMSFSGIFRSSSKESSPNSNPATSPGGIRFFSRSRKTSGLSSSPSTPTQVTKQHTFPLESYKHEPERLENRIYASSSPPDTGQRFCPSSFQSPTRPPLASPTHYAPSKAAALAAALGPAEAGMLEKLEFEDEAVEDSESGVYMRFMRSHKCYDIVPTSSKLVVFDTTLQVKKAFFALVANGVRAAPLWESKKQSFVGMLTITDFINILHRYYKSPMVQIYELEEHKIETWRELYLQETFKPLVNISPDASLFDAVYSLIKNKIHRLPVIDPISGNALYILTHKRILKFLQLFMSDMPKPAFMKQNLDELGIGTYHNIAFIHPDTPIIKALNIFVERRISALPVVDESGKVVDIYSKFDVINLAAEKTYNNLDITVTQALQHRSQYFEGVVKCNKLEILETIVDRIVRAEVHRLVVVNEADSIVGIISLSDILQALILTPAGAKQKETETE

| Activity: ratio between the % of control (basal activity) of compound at 30 μM and the % of control (basal activity) of AMP at 30 μM [1] | SMILES | reduction of blood glucose [2] |
| --- | --- | --- |
| 130% | O=c1[nH]c2cccc(O)c2[nH]c1=O [5-hydroxy-1,4-dihydroquinoxaline-2,3-dione] |  |
| 120% | CC(=O)Oc1cccc2[nH]c(=O)c(=O)[nH]c12 [Acetic acid 2,3-dioxo-1,2,3,4-tetrahydro-quinoxalin-5-yl ester] |  |
|  | NC(=O)c1ncn([C@@H]2O[C@H](CO)[C@@H](O)[C@H]2O)c1N [AICAR] | 35% |
